In patent publication US20260250290A1 (BRISTOL-MYERS SQUIBB COMPANY, priority 2023, published 2026) one finds IC50 data, which are given here for 15 molecules.

Counter-ions that a name gives are not always drawn.

The target in the assay is T1, SGK1 (Homo sapiens, UniProt O00141).
T1 sequence (O00141 1-431): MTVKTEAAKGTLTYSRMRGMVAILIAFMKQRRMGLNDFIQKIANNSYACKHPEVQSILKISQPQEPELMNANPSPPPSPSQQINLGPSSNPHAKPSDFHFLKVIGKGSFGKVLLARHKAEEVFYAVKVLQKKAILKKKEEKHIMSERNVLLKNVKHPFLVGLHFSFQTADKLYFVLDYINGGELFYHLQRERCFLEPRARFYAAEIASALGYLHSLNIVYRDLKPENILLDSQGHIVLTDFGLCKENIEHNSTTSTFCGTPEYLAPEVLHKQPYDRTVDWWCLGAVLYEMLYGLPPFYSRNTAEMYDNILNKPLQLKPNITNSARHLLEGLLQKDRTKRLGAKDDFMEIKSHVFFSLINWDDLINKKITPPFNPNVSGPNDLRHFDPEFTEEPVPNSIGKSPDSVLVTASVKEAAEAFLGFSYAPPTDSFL
As to the kind of experiment: SGK1 inhibition Assay B (Echo mass spectrometry of phosphorylated peptide product). The following applies: 60 min at room temperature. Type of assay: biochemical.
Experimental: 20 μl of 2 nM SGK1 were added in 20 mM Hepes+10 mM MgCl2+0015% Brij-35+4 mM DTT+0.05 mg/ml BSA and the reaction incubated for 60 min at room temperature. The enzymatic reaction was quenched by addition 10 μl of 1% Formic Acid+150 nM Internal Standard: FITC-(Ahx)KKRNRR(pS)VA^—OH (final concentration). The plates are spun down at 3700 RPM for 10 minutes to remove all precipitate. Samples were loaded on to the Sciex Echo Mass Spec attached to a Sciex 6500 equipped with ESI and was used to analyze the phosphorylated peptide product. MRM transition of product and internal standard were monitored at m/z 755 to 937.5 and m/z 757.7 to 941.3 respectively. Peak area of analyte was normalized with internal standard.
Dose response curves were generated to determine the concentration required for inhibiting 50% of the enzyme activity. Compounds were dissolved at 10 mM in dimethylsulfoxide (DMSO) and evaluated at eleven concentrations.
Regarding `CN1C2CCC1CC(Oc1cc(Cl)sc1C(=O)NC1CCCN(c3cc(-c4cnn(C(F)F)c4)n4ncnc(N)c34)C1)C2` [Example 836, N-((R)-1-(4-amino-7-(1-(difluoromethyl)-1H-pyrazol-4-yl)pyrrolo[2,1-f][1,2,4]triazin-5-yl)piperidin-3-yl)-5-chloro-3-(((1R,3s,5S)-8-methyl-8-azabicyclo[3.2.1]octan-3-yl)oxy)thiophene-2-carboxamide], the half-inhibitory concentration (IC50) worked out at 2 nM.
The same measure for `Cc1nc(O[C@@H]2CC[C@H]3[C@H](CCN3C)C2)c(C(=O)N[C@@H]2CCCN(c3cc(-c4ccc(C(N)=O)c(F)c4)n4ncnc(N)c34)C2)s1` [Example 918, 4-{[(3aR,5R,7aS)-1-methyl-octahydro-1H-indol-5-yl]oxy}-N-[(3R)-1-[4-amino-7-(4-carbamoyl-3-fluorophenyl)pyrrolo[2,1-f][1,2,4]triazin-5-yl]piperidin-3-yl]-2-methyl-1,3-thiazole-5-carboxamide]: 2 nM; for `[2H]C([2H])([2H])Oc1nccc(-c2cc(N3CCC[C@@H](NC(=O)c4sc(C)nc4O[C@H]4CC[C@@H](N(C)C)CC4)C3)c3c(N)ncnn23)n1` [Example 1033, N—((R)-1-(4-amino-7-(2-(methoxy-d3)pyrimidin-4-yl)pyrrolo[2,1-f][1,2,4]triazin-5-yl)piperidin-3-yl)-4-(((1S,4S)-4-(dimethylamino)cyclohexyl)oxy)-2-methylthiazole-5-carboxamide]: 1 nM; for `CC(=O)N1CC=C(c2cc(N3CCC[C@@H](NC(=O)c4sc(Cl)cc4OC4CCN(C)C(C)(C)C4)C3)c3c(N)ncnn23)C1` (single isomer, unassigned) [Example 948]: 2 nM.
For `CN1CCN(c2nccc(C(=O)N[C@@H]3CCCN(c4cc(-c5ccc(-n6cnnn6)c(CO)c5)n5ncnc(N)c45)C3)n2)CC1` [Example 852, (R)-N-(1-(4-amino-7-(3-(hydroxymethyl)-4-(1H-tetrazol-1-yl)phenyl)pyrrolo[2,1-f][1,2,4]triazin-5-yl)piperidin-3-yl)-2-(4-methylpiperazin-1-yl)pyrimidine-4-carboxamide, TFA salt], the IC50 turned out to be 10 nM.
`Cc1cc(O[C@@H]2C[C@H]3CC[C@@H](C2)N3C)c(C(=O)N[C@@H]2CCCN(c3cc(-c4cc(F)c(-n5cnnn5)c(F)c4)n4ncnc(N)c34)C2)s1` [Example 844, N-((R)-1-(4-amino-7-(3,5-difluoro-4-(1H-tetrazol-1-yl)phenyl)pyrrolo[2,1-f][1,2,4]triazin-5-yl)piperidin-3-yl)-5-methyl-3-(((1R,3s,5S)-8-methyl-8-azabicyclo[3.2.1]octan-3-yl)oxy)thiophene-2-carboxamide] returned an IC50 of 3 nM. This IC50 is about 3.3-fold lower than that of the molecule before.
In the case of `CC(=O)c1ccc(-c2cc(N3CCC[C@@H](NC(=O)c4sc(Cl)cc4O[C@@H]4C[C@H]5CC[C@@H](C4)N5C)C3)c3c(N)ncnn23)cc1F` [Example 839, N-((R)-1-(7-(4-acetyl-3-fluorophenyl)-4-aminopyrrolo[2,1-f][1,2,4]triazin-5-yl)piperidin-3-yl)-5-chloro-3-(((1R,3s,5S)-8-methyl-8-azabicyclo[3.2.1]octan-3-yl)oxy)thiophene-2-carboxamide] it was 2 nM; in that of `Cc1nccc(-c2cc(N3CCC[C@@H](NC(=O)c4sc(C)nc4O[C@H]4CC[C@@H](N(C)C)CC4)C3)c3c(N)ncnn23)n1` [Example 1035, N—((R)-1-(4-amino-7-(2-methylpyrimidin-4-yl)pyrrolo[2,1-f][1,2,4]triazin-5-yl)piperidin-3-yl)-4-(((1S,4S)-4-(dimethylamino)cyclohexyl)oxy)-2-methylthiazole-5-carboxamide], 0.8 nM; in that of `COC(=O)N1CC=C(c2cc(N3CCC[C@@H](NC(=O)c4sc(C)nc4OC4CCNCC4)C3)c3c(N)ncnn23)C1` [Example 359, Methyl (R)-3-(4-amino-5-(3-(2-methyl-4-(piperidin-4-yloxy)thiazole-5-carboxamido)piperidin-1-yl)pyrrolo[2,1-f][1,2,4]triazin-7-yl)-2.5-dihydro-1H-pyrrole-1-carboxylate], 3 nM.
The same measure for `CC(=O)N1CC=C(c2cc(N3CCC[C@@H](NC(=O)c4sc(Cl)cc4OC4CC5COCC(C4)N5)C3)c3c(N)ncnn23)C1` (stereo partly drawn) [Example 986E, 3-((3-Oxa-9-azabicyclo[3.3.1]nonan-7-yl)oxy)-N—((R)-1-(7-(1-acetyl-2,5-dihydro-1H-pyrrol-3-yl)-4-aminopyrrolo[2,1-f][1,2,4]triazin-5-yl)piperidin-3-yl)-5-chlorothiophene-2-carboxamide]: 0.9 nM; for `CC(C)N1[C@@H]2CCC[C@H]1C[C@H](Oc1cc(Cl)sc1C(=O)N[C@@H]1CCCN(c3cc(-c4cc(F)c(=O)n(CC(F)F)c4)n4ncnc(N)c34)C1)C2` [Example 968, N—((R)-1-(4-amino-7-(1-(2,2-difluoroethyl)-5-fluoro-6-oxo-1,6-dihydropyridin-3-yl)pyrrolo[2,1-f][1,2,4]triazin-5-yl)piperidin-3-yl)-5-chloro-3-(((1R,3s,5S)-9-isopropyl-9-azabicyclo[3.3.1]nonan-3-yl)oxy)thiophene-2-carboxamide]: 2 nM; for `CCC1=C(c2cc(N3CCC[C@@H](NC(=O)c4sc(C)nc4OC4CCC(NC5CC5)CC4)C3)c3c(N)ncnn23)COC1=O` (stereo partly drawn) [Example 1022, (R)-N-(1-(4-amino-7-(4-ethyl-5-oxo-2,5-dihydrofuran-3-yl)pyrrolo[2,1-f][1,2,4]triazin-5-yl)piperidin-3-y1)-4-((4-(cyclopropylamino)cyclohexyl)oxy)-2-methylthiazole-5-carboxamide]: 1.3 nM.
`CC(=O)N1CC=C(c2cc(N3CCC[C@@H](NC(=O)c4sc(Cl)cc4O[C@@H]4C[C@H]5CC[C@@H](C4)O5)C3)c3c(N)ncnn23)C1` [Example 988, 3-(((IR,3s.5S)-8-oxabicyclo[3.2.1]octan-3-y1)oxy)-N-((R)-1-(7-(1-acetyl-2,5-dihydro-1H-pyrrol-3-y1)-4-aminopyrrolo[2,1-f][1,2,4]triazin-5-y1)piperidin-3-y1)-5-chlorothiophene-2-carboxamide] registered an IC50 of 3 nM.
The same measure for `[2H]C([2H])([2H])N([C@H]1CC[C@@H](Oc2nc(C)sc2C(=O)N[C@@H]2CCCN(c3cc(C4=C(C)C(=O)OC4)n4ncnc(N)c34)C2)CC1)C([2H])([2H])[2H]` [Example 1013, N—((R)-1-(4-amino-7-(4-methyl-5-oxo-2,5-dihydrofuran-3-yl)pyrrolo[2,1-f][1,2,4]triazin-5-yl)piperidin-3-yl)-4-(((1S,4S)-4-(bis(methyl-d3)amino)cyclohexyl)oxy)-2-methylthiazole-5-carboxamide]: 1.7 nM; for `Cc1nc(O[C@H]2CC[C@@H](NC3CCOC3)CC2)c(C(=O)N[C@@H]2CCCN(c3cc(-c4ccc(=O)n(CC(F)F)n4)n4ncnc(N)c34)C2)s1` (stereo partly drawn) [Example 980, N—((R)-1-(4-Amino-7-(1-(2,2-difluoroethyl)-6-oxo-1,6-dihydropyridazin-3-yl)pyrrolo[2,1-f][1,2,4]triazin-5-yl)piperidin-3-yl)-2-methyl-4-(((1s,4S)-4-((tetrahydrofuran-3-yl)amino)cyclohexyl)oxy)thiazole-5-carboxamide]: 1 nM.
